Four compounds from patent US20200404909A1, “Fatty acid derivatives for use as herbicides” (Clariant International Ltd., priority 2018, published 2020) can be followed below.

Data set [1] in a line: Spray liquids in water: appearance and stability after 24 h. Format: physicochemical. To be noted: for Appearance: spray liquid in water, after 24 h. How it is done: The inventive compounds were used to make spray liquids at relevant use concentration. These spray liquids are produced by mixing the various test substances in water, and the appearance and stability of the spray liquid were assessed after 24 h.
The inventive compounds can be used as 100% substances without need for additional additives or formulation aids to obtain stable spray liquids. They are either water soluble and form clear homogeneous spray liquid or self-emulsifying in the spray liquid and form cloudy homogeneous emulsions that are stable over 24 h. […] Stable spray liquids can only be achieved with pelargonic acid when they are formulated with appropriate emulsifiers and other formulation aids like in the commercial benchmark Vorox.

The test system of data set [2] is monocotyledonous and dicotyledonous harmful plants (ABUTH, ALOMY, AMARE, DIGSA, ERICA, LOLPE, SOLNI, VIOAR). Nature of the data set: Greenhouse trials, post emergence herbicidal activity (percent control). Format: in vivo. To be noted: 5-20% w/v of applied substances, spray volume 500-1000 liters per hectare, broadcast foliar method. The text has this: Standard post emergence herbicide application procedures were used, as described below, to apply inventive compounds and formulations listed in the tables 1 and 2, as well as the reference materials.
Seed of monocotyledonous and dicotyledonous harmful plants such as Abutilon theophrasti (ABUTH), Alopecurus myosuroides (ALOMY), Amaranthus retroflexus (AMARE), Digitaria Sanguinalis (DIGSA), Erigeron canadensis (ERICA), Lolium perenne (LOLPE), Solanun nigrum (SOLNI), Viola arvensis (VIOAR) were sowed in 18 cm^2 pots. The plants were placed in a greenhouse under controlled environmental conditions, and sub-irrigation. About one week after emergence, seedlings were thinned as needed, including removal of any unhealthy or abnormal plants, to create a uniform series of test pots.
The plants were maintained for the duration of the test in the greenhouse, where they received a mean of 70 μmol m^−2 s^−1 of light per day/night. Temperatures averages about 24° C. during the day and about 20° C. during the night. Plants were sub-irrigated throughout the test to ensure adequate soil moisture levels.
Pots were assigned to different treatment in a randomized experimental design. A set of pots was left untreated as a reference against which effects of the treatments could later be evaluated. Applications of tested formulations were made in a spray cabin model SPK B CT02 designed by CheckTec using the following parameters: • nozzle Lechler LU-120-08, 1000 L/ha, 3 bars, 0.56 m/s • nozzle Lechler LU-120-06, 500 L/ha, 3 bars, 0.7 m/s.
The distance of the nozzle from the plants was between 50 to 53 cms.
After treatment, pots were returned to the greenhouse until ready for evaluation (6 hours after treatment (6HAT), 1 day after treatment (1DAT), and 2 days after treatment (2DAT).
For evaluation of herbicidal effectiveness, all plants in the test were examined by a single technician, who recorded percent control, a visual measurement of the effectiveness of each treatment by comparison with untreated plants. […] The reported % control values represent the average for all replicates of each treatment.

Data set [3] can be described thus: Volatility from spray deposit on non-permeable leaf cuticles. Format: physicochemical. To be noted: pelargonic acid 30 g/L, Vorox 130 g/L. How it is done:
(§1) The volatility of the test substances from the spray deposit was measured time dependent. All measurements have been carried out using a concentration of 50 g/L of the test substances in the application solution. The reference pelargonic acid was used at a concentration of 30 g/L and the commercial benchmark Vorox was applied at a concentration of 130 g/L. The […] drop volumes of 10 μl of the spray liquids which amounts to 500 μg of test substance were then applied on two different substrates. An inert wettable synthetic substrates and non-permeable leaf cuticles were used as substrates. […] After evaporation of drop water, the substrates were weighed to obtain the initial weight and placed under a sealed box with defined air suction output volume of 30 m^3/h. The volatility has been determined after the desired measurement time of 4 h, 24 h and 48 h by weighing of the substrates to obtain the remaining weight of the test substances. The fraction of remaining test substance in % is obtained by the ratio of remaining test substance compared to the initial weight of test substance. The volatilized amount was calculated by subtraction of the remaining test substance of the initial applied amount. The volatilized fraction of test substance in % is obtained by the ratio of volatilized test substance compared to the initial weight of test substance. A substrate without test substance is used as reference to account for changes in environmental conditions such as humidity. Concentrations used are based on ca. 3% pelargonic acid equivalent

A short description of data set [4]: Volatility from spray deposit on inert wettable synthetic substrates. It counts as physicochemical. To be noted: pelargonic acid 30 g/L, Vorox 130 g/L. As for the experimental part: as §1
For data set [5], the system named is Fruit trees (apple trees). The data set can be described thus: Plant growth regulator activity: blossom thinning in orchards (greenhouse and field trial). Format: in vivo. The conditions noted are these: A1 diluted in water 1-10%, about 2 to about 15 liters per apple tree. From the text:
Fruit trees were sprayed with substance A1 (Pelargonic acid 6 EO ester methyl ether), several days before the expected full blossoming in the greenhouse, and also in a field trial to test the blossom thinning, which is used to increase the fruit production.
Plots (3 trees per plot in field trials; 1 tree per plot in greenhouse) were assigned to different treatments in a randomized experimental design. One plot was left untreated as a reference against which effects of the treatments could later be evaluated.
The test substance A1 was diluted in water in a range of 1-10% and the spray solution was sprayed in an amount of about 2 to about 15 liters per apple tree (height: about 2-2.5 m, width: about 1-1.5 m). The Application was made with a high-pressure power backpack sprayer manufactured by SOLO® Kleinmotoren GmbH.
The treated trees were evaluated regarding flower thinning effect, but also regarding undesired effects by chemical injury such as leaf browning, leaf malformation, etc.

The mark [6] stands for this setting: pH 4, 4 h, test substances 50 g/L.
Setting [7] is: pH 4, 24 h, test substances 50 g/L.
The mark [8] stands for this setting: pH 4, 48 h, test substances 50 g/L.

In the case of `CCCCCCCCC(=O)OCCOCCOCCOCCOCCOCCOC` [A1, Pelargonic acid 6 EO ester methyl ether], the Appearance result in data set [1] (amount 5.0 % by wt.) is reported as “Clear solution”. The “herbicidal activity against a plurality of the harmful plants” value (“herbicidal activity against a plurality” for short) in data set [2] is “moderately effective to highly effective”. In data set [2], the “herbicidal activity against several, in particular three or more, of the mentioned harmful plants” value is reported as “highly effective”. In addition, the “Volatilized fraction 4 h” value in data set [3] (setting [6]) was 1.5%; in data set [4] (setting [6]), −0.2%. The figures for the “Volatilized fraction 24 h” value in data set [3] (setting [7]) and in data set [4] (setting [7]) were 4.8% and 0.6%, respectively. Moreover, the “Volatilized fraction 48 h” value in data set [3] (setting [8]) worked out at 5.2%; in data set [4] (setting [8]) it was 1.2%. Also, the “undesired effects by chemical injury (leaves, branches, tree)” value in data set [5] (evaluated after treatment) is “without significantly harming the tree”. In addition, in data set [5] (sprayed several days before full blossoming), the flower thinning effect entry is “excellent results as flower thinning agent”.

On to `CCCCCCCCC(=O)OCCOCCOCCOCCOCCOCCOCCOCCOC` [A2, Pelargonic acid 8 EO ester methyl ether], for which the Appearance result in data set [1] (amount 0.3 % by wt.) and in data set [1] (amount 5.0 % by wt.) was “Clear solution” in each case. The “herbicidal activity against a plurality” value in data set [2] was “moderately effective to highly effective”. The “Volatilized fraction 4 h” value is recorded as 1.7% in data set [3] (setting [6]) and −0.3% in data set [4] (setting [6]). For the same compound, the “Volatilized fraction 24 h” value in data set [3] (setting [7]) came out at 2.1%; in data set [4] (setting [7]), 0.2%. Further, the “Volatilized fraction 48 h” value is on record as 2.8% in data set [3] (setting [8]) and 0.4% in data set [4] (setting [8]).

As for `CCCCCCCCC(=O)O` [Pelargonic acid, reference compound], the “stability of spray liquid” value in data set [1] (100% substances in water without additional additives or formulation aids) is recorded as “phase separate immediately”. In addition, the Appearance in data set [1] (amount 0.3 % by wt.) and in data set [1] (amount 5.0 % by wt.) was 2 clear phases throughout. In data set [2], the “herbicidal activity against a plurality” value is “moderately effective to highly effective”. For the same compound, the “Volatilized fraction 4 h” value in data set [3] (setting [6]) is given as 55.7%; in data set [3] (pH 7, 4 h), 29.2%; in data set [4] (setting [6]) it was 3.9%; in data set [4] (pH 7, 4 h), 7.3%. In addition, the “Volatilized fraction 24 h” value is given as 78.9% in data set [3] (setting [7]); 33.8% in data set [3] (pH 7, 24 h); 19.1% in data set [4] (setting [7]); 21.3% in data set [4] (pH 7, 24 h). Also, the “Volatilized fraction 48 h” value in data set [3] (setting [8]) was determined as 80.6%; in data set [3] (pH 7, 48 h) it was 35.3%; in data set [4] (setting [8]) it was 35.2%; in data set [4] (pH 7, 48 h), 27.9%.

Regarding “C8/C10 fatty acid 6 EO ester methyl ether [A6]”, in data set [1] (amount 5.0 % by wt.), the Appearance entry is “Clear solution”. Further, the “herbicidal activity against a plurality” value in data set [2] is “moderately effective to highly effective”.
